Experimental data reported in the NIST ThermoML archive (doi:10.1021/acs.jced.8b01236).
± gives the expanded uncertainty stated by the source.

Experiment: xn = mol fraction of the nth substance listed
Details: Liquid; for binary diffusion coefficient: Open capillary; for mass density: Pycnometric method

CCCCCC[N+]1(C)CCCC1.O=S(=O)([N-]S(=O)(=O)C(F)(F)F)C(F)(F)F + O=C=O
Details	binary diffusion coefficient [m2/s]	mass density [kg/m3]
298.15 K, 100 kPa, x2 = 0.2	1.6e-10	–
298.15 K, 1000 kPa, x2 = 0.2	2.4e-10	–
298.15 K, 1004 kPa, x2 = 0.236	–	1360 ± 9
298.15 K, 2000 kPa, x2 = 0.2	4e-10	–
298.15 K, 2030 kPa, x2 = 0.403	–	1354 ± 8
298.15 K, 2493 kPa, x2 = 0.484	–	1343 ± 6
298.15 K, 3003 kPa, x2 = 0.531	–	1345 ± 6
298.15 K, 3496 kPa, x2 = 0.577	–	1336 ± 8
298.15 K, 3999 kPa, x2 = 0.614	–	1324 ± 8
298.15 K, 4496 kPa, x2 = 0.653	–	1308 ± 8
298.15 K, 4998 kPa, x2 = 0.683	–	1299 ± 8
298.15 K, 5521 kPa, x2 = 0.716	–	1294 ± 10
298.15 K, 5995 kPa, x2 = 0.738	–	1281 ± 12
298.15 K, 6387 kPa, x2 = 0.751	–	1263 ± 22
318.15 K, 1005 kPa, x2 = 0.179	–	1346 ± 7
318.15 K, 2021 kPa, x2 = 0.315	–	1332 ± 7
318.15 K, 2513 kPa, x2 = 0.366	–	1315 ± 6
318.15 K, 2996 kPa, x2 = 0.416	–	1323 ± 6
318.15 K, 4039 kPa, x2 = 0.515	–	1311 ± 8
318.15 K, 6032 kPa, x2 = 0.632	–	1301 ± 12
318.15 K, 7998 kPa, x2 = 0.72	–	1291 ± 20
318.15 K, 9884 kPa, x2 = 0.783	–	1345 ± 44
318.2 K, 100 kPa, x2 = 0.15	2.3e-10	–
318.2 K, 1000 kPa, x2 = 0.15	3.8e-10	–
318.2 K, 1800 kPa, x2 = 0.15	3.8e-10	–
338.15 K, 1001 kPa, x2 = 0.118	–	1307 ± 7
338.15 K, 2028 kPa, x2 = 0.264	–	1315 ± 7
338.15 K, 2537 kPa, x2 = 0.293	–	1311 ± 7
338.15 K, 3030 kPa, x2 = 0.346	–	1310 ± 6
338.15 K, 4022 kPa, x2 = 0.443	–	1313 ± 6
338.15 K, 5027 kPa, x2 = 0.508	–	1311 ± 8
338.15 K, 6014 kPa, x2 = 0.561	–	1307 ± 8
338.15 K, 7501 kPa, x2 = 0.637	–	1310 ± 8
338.15 K, 10006 kPa, x2 = 0.706	–	1319 ± 16
338.15 K, 12478 kPa, x2 = 0.752	–	1325 ± 18
338.15 K, 14944 kPa, x2 = 0.771	–	1341 ± 12

CCCC[N+]1(C)CCCC1.O=S(=O)([N-]S(=O)(=O)C(F)(F)F)C(F)(F)F + O=C=O
Details	binary diffusion coefficient [m2/s]	mass density [kg/m3]
298.15 K, 100 kPa, x2 = 0.2	1.3e-10	–
298.15 K, 996 kPa, x2 = 0.199	–	1385 ± 7
298.15 K, 1000 kPa, x2 = 0.2	1.6e-10	–
298.15 K, 1997 kPa, x2 = 0.379	–	1377 ± 6
298.15 K, 2000 kPa, x2 = 0.2	3e-10	–
298.15 K, 2502 kPa, x2 = 0.449	–	1371 ± 6
298.15 K, 3031 kPa, x2 = 0.51	–	1361 ± 6
298.15 K, 3511 kPa, x2 = 0.559	–	1351 ± 6
298.15 K, 4013 kPa, x2 = 0.602	–	1348 ± 6
298.15 K, 4504 kPa, x2 = 0.638	–	1345 ± 6
298.15 K, 5002 kPa, x2 = 0.674	–	1339 ± 6
298.15 K, 5512 kPa, x2 = 0.702	–	1336 ± 8
298.15 K, 6040 kPa, x2 = 0.728	–	1326 ± 10
298.15 K, 6378 kPa, x2 = 0.745	–	1330 ± 18
318.15 K, 1005 kPa, x2 = 0.156	–	1387 ± 7
318.15 K, 2046 kPa, x2 = 0.311	–	1391 ± 7
318.15 K, 3019 kPa, x2 = 0.436	–	1389 ± 6
318.15 K, 4000 kPa, x2 = 0.528	–	1397 ± 8
318.15 K, 6033 kPa, x2 = 0.638	–	1380 ± 12
318.15 K, 8002 kPa, x2 = 0.714	–	1378 ± 18
318.2 K, 100 kPa, x2 = 0.15	2.2e-10	–
318.2 K, 1000 kPa, x2 = 0.15	2.9e-10	–
318.2 K, 2000 kPa, x2 = 0.15	3.3e-10	–
338.15 K, 1019 kPa, x2 = 0.123	–	1368 ± 7
338.15 K, 2011 kPa, x2 = 0.23	–	1358 ± 28
338.15 K, 2520 kPa, x2 = 0.301	–	1369 ± 6
338.15 K, 3004 kPa, x2 = 0.345	–	1369 ± 6
338.15 K, 4000 kPa, x2 = 0.435	–	1371 ± 6
338.15 K, 5007 kPa, x2 = 0.495	–	1380 ± 8
338.15 K, 6020 kPa, x2 = 0.537	–	1357 ± 8
338.15 K, 7504 kPa, x2 = 0.606	–	1348 ± 8
338.15 K, 10012 kPa, x2 = 0.682	–	1349 ± 16
338.15 K, 12486 kPa, x2 = 0.712	–	1384 ± 18
338.15 K, 14895 kPa, x2 = 0.728	–	1387 ± 12

CCC[N+]1(C)CCCC1.O=S(=O)([N-]S(=O)(=O)C(F)(F)F)C(F)(F)F + O=C=O
Details	binary diffusion coefficient [m2/s]	mass density [kg/m3]
298.15 K, 100 kPa, x2 = 0.2	1.3e-10	–
298.15 K, 1000 kPa, x2 = 0.2	1.8e-10	–
298.15 K, 1009 kPa, x2 = 0.236	–	1464 ± 11
298.15 K, 2000 kPa, x2 = 0.2	2.4e-10	–
298.15 K, 2028 kPa, x2 = 0.389	–	1420 ± 17
298.15 K, 3030 kPa, x2 = 0.503	–	1411 ± 12
298.15 K, 3507 kPa, x2 = 0.553	–	1408 ± 9
298.15 K, 4038 kPa, x2 = 0.598	–	1401 ± 6
298.15 K, 4517 kPa, x2 = 0.632	–	1390 ± 8
298.15 K, 5014 kPa, x2 = 0.661	–	1386 ± 9
298.15 K, 5505 kPa, x2 = 0.688	–	1385 ± 15
298.15 K, 6003 kPa, x2 = 0.709	–	1373 ± 12
298.15 K, 6397 kPa, x2 = 0.725	–	1363 ± 22
318.15 K, 1055 kPa, x2 = 0.185	–	1441 ± 7
318.15 K, 2223 kPa, x2 = 0.323	–	1437 ± 6
318.15 K, 4005 kPa, x2 = 0.471	–	1407 ± 7
318.15 K, 5004 kPa, x2 = 0.528	–	1392 ± 7
318.15 K, 6004 kPa, x2 = 0.575	–	1374 ± 8
318.15 K, 7010 kPa, x2 = 0.621	–	1356 ± 9
318.15 K, 8010 kPa, x2 = 0.664	–	1366 ± 10
318.15 K, 16527 kPa, x2 = 0.731	–	1385 ± 8
318.15 K, 19966 kPa, x2 = 0.751	–	1406 ± 7
318.2 K, 100 kPa, x2 = 0.15	2.7e-10	–
318.2 K, 1000 kPa, x2 = 0.15	3e-10	–
318.2 K, 2000 kPa, x2 = 0.15	3.7e-10	–
338.15 K, 1009 kPa, x2 = 0.065	–	1400 ± 10
338.15 K, 2002 kPa, x2 = 0.198	–	1405 ± 9
338.15 K, 2508 kPa, x2 = 0.249	–	1393 ± 9
338.15 K, 3007 kPa, x2 = 0.328	–	1408 ± 12
338.15 K, 4008 kPa, x2 = 0.413	–	1404 ± 14
338.15 K, 4999 kPa, x2 = 0.474	–	1427 ± 13
338.15 K, 6006 kPa, x2 = 0.536	–	1430 ± 6
338.15 K, 7503 kPa, x2 = 0.612	–	1435 ± 10
